Test results taken from patent publication US12686665B2, “Bicyclic fused ring derivative or salt thereof and pharmaceutical composition comprising same” (YUHAN CORPORATION, priority 2021, dated 2026).
Structures can show the parent of a compound that is named as a salt.

Assays:
Format in all cases: biochemical
[1] = biological target: T1, recombinant human DAO (diamine oxidase) (Homo sapiens, UniProt P19801); test: Amplex Red HRP-coupled amine oxidase assay, recombinant human DAO; settings: 1 mM putrescine substrate, read-out: Inhibitory activity (IC50, nM) DAO
T1 construct: purchased R&D systems
T1 sequence (P19801 20-751): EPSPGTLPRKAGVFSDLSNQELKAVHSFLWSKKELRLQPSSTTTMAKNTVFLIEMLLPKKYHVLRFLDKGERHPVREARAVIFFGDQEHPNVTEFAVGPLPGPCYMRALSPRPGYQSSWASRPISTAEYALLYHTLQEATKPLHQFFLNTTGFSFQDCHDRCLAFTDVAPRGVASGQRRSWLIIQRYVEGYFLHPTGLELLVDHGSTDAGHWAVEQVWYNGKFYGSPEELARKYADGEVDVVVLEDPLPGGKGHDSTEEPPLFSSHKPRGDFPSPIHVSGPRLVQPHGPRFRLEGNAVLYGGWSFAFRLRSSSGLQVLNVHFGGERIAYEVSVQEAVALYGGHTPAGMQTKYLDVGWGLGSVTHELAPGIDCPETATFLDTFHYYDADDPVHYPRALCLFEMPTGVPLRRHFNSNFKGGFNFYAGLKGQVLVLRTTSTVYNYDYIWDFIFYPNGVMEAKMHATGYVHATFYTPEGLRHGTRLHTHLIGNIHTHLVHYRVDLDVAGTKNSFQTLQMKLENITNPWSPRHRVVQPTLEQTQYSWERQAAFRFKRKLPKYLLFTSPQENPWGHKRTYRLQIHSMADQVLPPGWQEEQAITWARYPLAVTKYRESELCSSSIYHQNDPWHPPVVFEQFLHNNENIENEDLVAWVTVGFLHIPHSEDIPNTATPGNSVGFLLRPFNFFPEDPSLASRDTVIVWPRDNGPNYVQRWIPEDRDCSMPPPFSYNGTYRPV
Method: (§1) The activities of the compounds according to the present invention against recombinant human Lysyl Oxidase-Like 2 (recombinant human LOXL2, R&D systems) were evaluated by measuring the levels of hydrogen peroxide in the HRP (horseradish peroxidase) coupled reactions, with the Amplex Red Hydrogen Peroxide Assay Kit (Molecular Probes, Invitrogen, USA). The tests were carried out at 37° C., and putrescine was used as a substrate. In the HRP coupling reaction, the oxidation of 10-acetyl-3,7-dihydroxyphenoxazine (Amplex Red reagent) by hydrogen peroxide generates a fluorescent product, i.e., resorufin. Briefly, the test compounds were dissolved in dimethyl sulfoxide (DMSO) at a concentration of 20 mM. Dose-response measurements were carried out by serial dilutions in DMSO to generate a six-point curve. The upper concentration was adjusted according to the potency of the compound, and then diluted with the reaction buffer to obtain a final DMSO concentration of 1%. Purified human LOXL2 in 50 mM sodium phosphate buffer (pH7.4) was added to each well of a 96 well black plate. The test compounds dissolved in DMSO were incubated with the human LOXL2 enzyme at 37° C. for 60 minutes. After the incubation for 60 minutes, a reaction mixture containing 400 μM Amplex Red reagent, 30 mM putrescine, and 2 U/mL HRP in 50 mM sodium phosphate buffer (pH 7.4) was added to each well. Fluorescence was measured with a microplate reader (Flexstation3, Molecular Devices), under the conditions of excitation at 530 nm and emission at 590 nm, 1 hour after the addition of the mixture. Inhibition by each compound was measured as % reduction in signal, compared to the control without an inhibitor (diluted DMSO only). The data were fixed to a four-variable logistic model, and […] values were calculated using the GraphPad Prism program.
(§2) And, the activities of the compounds according to the present invention against recombinant human MAO-A (monoamine oxidase-A, Sigma-Aldrich) and recombinant human MAO-B (monoamine oxidase-B, Sigma-Aldrich) were evaluated in a similar manner to the activity evaluation method for recombinant human LOXL2, using 0.5 mM tyramine and 1 mM benzylamine as a substrate, respectively. In addition, the activities of the compounds according to the present invention against recombinant human DAO (diamine oxidase, R&D systems) were evaluated in a similar manner to the activity evaluation method for recombinant human LOXL2, using 1 mM putrescine as a substrate.

[2] = biological target: T2, recombinant human Lysyl Oxidase-Like 2 (LOXL2) (Homo sapiens, UniProt Q9Y4K0); test: Amplex Red HRP-coupled amine oxidase assay, recombinant human LOXL2; settings: 60 min incubation with enzyme at 37° C., putrescine substrate, read-out: Inhibitory activity (IC50, nM) human LOXL2
T2 construct: purchased R&D systems
T2 sequence (Q9Y4K0 26-774): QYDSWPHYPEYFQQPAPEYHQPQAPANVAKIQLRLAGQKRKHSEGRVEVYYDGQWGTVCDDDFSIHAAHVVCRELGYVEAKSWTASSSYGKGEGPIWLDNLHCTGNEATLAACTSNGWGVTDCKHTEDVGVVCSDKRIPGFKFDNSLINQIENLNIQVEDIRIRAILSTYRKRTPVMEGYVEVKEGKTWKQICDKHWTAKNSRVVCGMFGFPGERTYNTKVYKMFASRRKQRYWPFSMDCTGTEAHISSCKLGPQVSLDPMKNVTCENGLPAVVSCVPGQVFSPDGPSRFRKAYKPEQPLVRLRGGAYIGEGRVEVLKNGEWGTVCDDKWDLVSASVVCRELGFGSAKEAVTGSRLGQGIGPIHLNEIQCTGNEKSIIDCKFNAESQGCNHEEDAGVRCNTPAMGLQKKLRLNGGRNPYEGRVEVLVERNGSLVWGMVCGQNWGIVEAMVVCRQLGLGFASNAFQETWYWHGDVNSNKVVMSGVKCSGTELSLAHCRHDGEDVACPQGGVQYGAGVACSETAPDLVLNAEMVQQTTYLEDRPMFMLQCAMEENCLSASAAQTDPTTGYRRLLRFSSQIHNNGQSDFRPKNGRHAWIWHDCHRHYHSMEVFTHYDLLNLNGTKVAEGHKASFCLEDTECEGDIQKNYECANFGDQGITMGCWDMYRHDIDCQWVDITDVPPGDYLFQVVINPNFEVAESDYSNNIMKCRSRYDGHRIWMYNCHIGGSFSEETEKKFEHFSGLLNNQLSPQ
Method: as §1

[3] = biological target: T3, recombinant human MAO-B (monoamine oxidase-B) (Homo sapiens, UniProt P27338); test: Amplex Red HRP-coupled amine oxidase assay, recombinant human MAO-B; settings: 1 mM benzylamine substrate, read-out: Inhibitory activity (IC50, nM) MAO-B
T3 construct: purchased Sigma-Aldrich
T3 sequence (P27338 1-520): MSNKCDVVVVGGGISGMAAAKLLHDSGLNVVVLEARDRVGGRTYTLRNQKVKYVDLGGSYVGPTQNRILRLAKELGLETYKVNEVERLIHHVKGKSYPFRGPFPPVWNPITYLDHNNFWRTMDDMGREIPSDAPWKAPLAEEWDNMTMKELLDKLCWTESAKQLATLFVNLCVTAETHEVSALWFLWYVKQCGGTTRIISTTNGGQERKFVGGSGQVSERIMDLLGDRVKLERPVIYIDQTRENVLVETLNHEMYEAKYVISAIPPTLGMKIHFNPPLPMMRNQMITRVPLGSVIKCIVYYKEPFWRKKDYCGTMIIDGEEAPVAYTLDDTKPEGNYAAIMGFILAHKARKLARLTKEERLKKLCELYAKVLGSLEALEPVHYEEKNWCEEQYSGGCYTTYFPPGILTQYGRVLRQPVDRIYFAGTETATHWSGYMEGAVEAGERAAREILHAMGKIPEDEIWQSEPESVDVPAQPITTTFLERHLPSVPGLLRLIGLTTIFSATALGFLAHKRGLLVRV
Method: as §1, §2

[4] = biological target: T4, recombinant human MAO-A (monoamine oxidase-A) (Homo sapiens, UniProt P21397); test: Amplex Red HRP-coupled amine oxidase assay, recombinant human MAO-A; settings: 0.5 mM tyramine substrate, read-out: Inhibitory activity (IC50, nM) MAO-A
T4 construct: purchased Sigma-Aldrich
T4 sequence (P21397 1-527): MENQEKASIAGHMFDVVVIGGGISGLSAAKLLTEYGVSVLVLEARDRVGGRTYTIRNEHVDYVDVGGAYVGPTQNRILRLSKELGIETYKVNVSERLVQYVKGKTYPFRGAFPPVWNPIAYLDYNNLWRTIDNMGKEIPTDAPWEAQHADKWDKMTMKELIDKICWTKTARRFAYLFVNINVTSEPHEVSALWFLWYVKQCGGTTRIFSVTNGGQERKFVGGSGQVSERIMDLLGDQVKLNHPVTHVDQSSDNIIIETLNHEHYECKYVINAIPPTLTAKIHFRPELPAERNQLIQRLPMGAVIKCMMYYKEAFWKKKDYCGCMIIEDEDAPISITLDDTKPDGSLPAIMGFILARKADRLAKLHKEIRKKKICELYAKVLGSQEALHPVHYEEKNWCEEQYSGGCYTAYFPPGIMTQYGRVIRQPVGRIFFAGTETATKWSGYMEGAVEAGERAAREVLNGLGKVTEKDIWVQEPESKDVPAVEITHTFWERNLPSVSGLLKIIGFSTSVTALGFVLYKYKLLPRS
Method: as §1, §2

| IC50 [1] [nM] | IC50 [2] [nM] | IC50 [3] [nM] | IC50 [4] [nM] | SMILES |
| --- | --- | --- | --- | --- |
| 3150 | 34 | – | – | CN(C)S(=O)(=O)c1cccc(-c2cc(C(F)(F)F)cc3c2nnn3C/C(F)=C/CN)c1 [Example 196, (Z)-3-(1-(4-amino-2-fluorobut-2-en-1-yl)-6-(trifluoromethyl)-1H-benzo[d][1,2,3]triazol-4-yl)—N,N-dimethylbenzenesulfonamide hydrochloride] |
| 432 | 264 | – | – | N#Cc1cc(-c2cncnc2)c2nnn(C/C(F)=C/CN)c2c1 [Example 210, (Z)-1-(4-amino-2-fluorobut-2-en-1-yl)-4-(pyrimidin-5-yl)-1H-benzo[d][1,2,3]triazol-6-carbo nitrile hydrochloride] |
| – | 99 | > 100000 | > 100000 | CC(=O)c1ccc(F)c(-c2cc(C#N)cc3c2ncn3C/C(F)=C/CN)c1 [Example 184, (Z)-4-(5-acetyl-2-fluorophenyl)-1-(4-amino-2-fluorobut-2-en-1-yl)-1H-benzo[d]imidazol-6-carbonitrile hydrochloride] |
| – | 95.5 | > 100000 | > 100000 | Cn1nccc1-c1cc(C#N)cc2c1ncn2C/C(F)=C/CN [Example 191, (Z)-1-(4-amino-2-fluorobut-2-en-1-yl)-4-(1-methyl-1H-pyrazol-5-yl)-1H-benzo[d]imidazol-6-carbonitrile hydrochloride] |
| 1960 | 200 | – | – | N#Cc1cc(-c2cc(CO)ccc2F)c2nnn(C/C(F)=C/CN)c2c1 [Example 206, (Z)-1-(4-amino-2-fluorobut-2-en-1-yl)-4-[2-fluoro-5-(hydroxymethyl)phenyl]-1H-benzo[d][1,2,3]triazol-6-carbonitrile hydrochloride] |
| – | 28.7 | > 100000 | > 100000 | CN(C)S(=O)(=O)c1cccc(-c2cc(C#N)cc3c2ncn3C/C(F)=C/CN)c1 [Example 182, (Z)-3-(1-(4-amino-2-fluorobut-2-en-1-yl)-6-cyano-1H-benzo[d]imidazol-4-yl)-N,N-dimethylbenzenesulfonamide hydrochloride] |
| 2830 | 17.1 | 97000 | – | COC(=O)c1cc(-c2cc(S(=O)(=O)NC3CC3)ccc2OC)c2nnn(C/C(F)=C/CN)c2c1 [Example 120, methyl (Z)-1-(4-amino-2-fluorobut-2-en-1-yl)-4-(5-(N-cyclopropylsulfamoyl)-2-methoxyphenyl)-1H-benzo[d][1,2,3]triazol-6-carboxylate hydrochloride] |
| 7440 | 281 | – | – | N#Cc1cc(-c2cccc(CO)c2Cl)c2nnn(C/C(F)=C/CN)c2c1 [Example 207, (Z)-1-(4-amino-2-fluorobut-2-en-1-yl)-4-[2-chloro-3-(hydroxymethyl)phenyl-1H-benzo[d][1,2,3]triazol-6-carbonitrile hydrochloride] |
| – | 72 | – | – | COc1ccc(-c2cccc3c2nnn3C/C(F)=C/CN)cc1S(=O)(=O)NC(C)C [Example 109, (Z)-5-(1-(4-amino-2-fluorobut-2-en-1-yl)-1H-benzo[d][1,2,3]triazol-4-yl)-N-isopropyl-2-methoxybenzenesulfonamide hydrochloride] |
| – | 117 | – | – | N#Cc1cc(-c2cncnc2)c2ncn(C/C(F)=C/CN)c2c1 [Example 190, (Z)-1-(4-amino-2-fluorobut-2-en-1-yl)-4-(pyrimidin-5-yl)-1H-benzo[d]imidazol-6-carbonitrile hydrochloride] |
| – | 51 | – | – | NC/C=C(\F)Cn1nnc2c(-c3cccc(S(=O)(=O)N4CCCC4)c3)cccc21 [Example 104, (Z)-3-fluoro-4-(4-(3-(pyrrolidin-1-ylsulfonyl)phenyl)-1H-benzo[d][1,2,3]triazol-1-yl)but-2-en-1-amine hydrochloride] |
| 1730 | 350 | – | – | Cn1nccc1-c1cc(C#N)cc2c1nnn2C/C(F)=C/CN [Example 211, (Z)-1-(4-amino-2-fluorobut-2-en-1-yl)-4-(1-methyl-1H-pyrazol-5-yl)-1H-benzo[d][1,2,3]triazol-6-carbonitrile hydrochloride] |
| – | 497 | – | – | Cc1cc(-c2cc(C(F)(F)F)cc3c2nnn3C/C(F)=C/CN)n(C)n1 [Example 204, (Z)-4-[4-(1,3-dimethyl-1H-pyrazol-5-yl)-6-(trifluoromethyl)-1H-benzo[d][1,2,3]triazol-1-yl]-3-fluorobut-2-en-1-amine hydrochloride] |
